Laboratory results reported in patent US11123292B2, “Use of biocompatible microdroplets for the treatment of atherosclerosis, heart disease and stroke” (priority 2014, dated 2021).
Where two headings read alike, the source gives them in different places.

Columns and labels:
[1] = Relative Energy Difference (RED) with cholesterol, calculated from HSP; settings: for Relative Energy Difference (RED) with cholesterol: RED=Ra/Ro, Ro of cholesterol 12.6; for Ra^2 versus cholesterol: Eq. 1
Method: The extent to which two compounds will dissolve each other can be quantified using the equations developed by Hansen: (Ra)^2=4(δd2−δd1)^2+(δp2−δp1)^2+(δh2−δh1)^2 Eq. (1) RED=Ra/Ro Eq. (2)
Equation 1 calculates the relative magnitude difference of the three Hansen parameters of the two compounds to arrive at Ra. […] Equation 2 allows one to calculate the Relative Energy Difference (RED) of the solvent and the material we are trying to dissolve, by dividing Ra by Ro. Ra was calculated in Equation 1 and measures the magnitude of the difference of the HSP values of the two compounds. The units for the HSP parameters δd, δp, δh are MPa^1/2. […] The Relative Energy Difference (RED) is a dimensionless number which quantifies how well a solvent will dissolve a solute. For an RED>>1 the compounds will not dissolve. For an RED˜1, there will be some dissolution. For an RED<1 there will be a considerable amount of dissolution. Essentially, the smaller RED value, the more solute will dissolve into the solvent, with RED=1 being a threshold where a given solute is starting to be soluble in a given solvent.
Referring now to FIG. 6, this diagram provides a flow chart showing how the biocompatible microdroplet solvent emulsion can be formulated. […] For an example of compounds which might be included in 400, please refer to Tables 1, 2, 3 and 4. However, this list of tables is by no means exhaustive and other compounds could be added to this list. The number of compounds selected can comprise of 1, 2, 3 or as many as are deemed necessary, which is symbolized by the variable n. The HSP parameters of a homogenous mixture of compounds are the weighted average of the HSP parameters of the individual components. […] Ideally, it is possible to formulate a solution such that the resultant RED of the mixture is smaller than the RED of any of the individual components.
The δdm, δpm, δhm calculated using Eq. 9 are the Hansen solubility parameters of the homogenous mixture, where m denotes mixture, and fi depicts the fraction of each of the n components used to fabricate the biocompatible solvent. Equation 10 can be used to calculate the RED of the final mixture, where Ro is the interaction radius of the cholesterol, or other component of arterial plaque one desires to dissolve using the biocompatible microdroplets and […] represents the Hansen solubility constants of cholesterol (dispersion, polar and hydrogen bonding components) or the HSP parameter of the arterial plaque which is being targeted.

[2] = single compound; cited from earlier work
[3] = cited from earlier work
[4] = cited from earlier work; remark: listed apart in the source
[5] = cited from earlier work; for LD50 dose: route not stated
[6] = Dissolving cholesterol by microdroplets in whole blood; settings: whole blood
From the text: (§1) To effectively dissolve arterial plaque in-vivo it is very important that the biocompatible solvent be sufficiently insoluble in blood to allow a small discrete microdroplet to travel through the blood stream, from the injection point, to the plaque which is being treated. If the biocompatible solvent dissolves within the blood, such as an alcohol, the solubility parameters of the resultant mixture will be very nearly identical to that of blood and will not dissolve cholesterol or arterial plaque. Conversely, if a discrete microdroplet of the biocompatible solvent makes contact with the plaque, then the cholesterol molecule in the plaque will be surrounded by multiple molecules of the biocompatible solvent, which have similar solubility parameters as the cholesterol, and the cholesterol will be drawn away from the plaque and into the droplet. […] An organic salt, Esters, an organo-metallic compound could also be used as the main component or an addition to the biocompatible microdroplet solvent means. Essentially any organic molecule which can be administered intravenously with acceptable side effects, is sufficiently insoluble in blood to travel as a discrete microdroplet without being dissolved prior to reaching arterial plaque and which is capable of dissolving cholesterol, cholesterol esters or other materials within the arterial plaque, could potentially be used.
(§2) 1,8-cineole is classified as a cyclic ether and a monoterpenoid. […] This chemical gives certain fruits such as apples and strawberries their fruity taste, and is used as an additive in bubble gums for this purpose. […] It is used as a fragrance or flavouring agent. […] It is produced natuarally by the organism, and is found in abundance in shark liver oil.

[7] = Water insoluble solvents tested for dissolving cholesterol / arterial plaque; settings: medium not stated
From the text: as §1

[8] = Dissolving cholesterol by microdroplets in a dilute solution in water
From the text: as §2

| Structure (SMILES) | Relative Energy Difference (RED) with cholesterol [1] | δd London dispersion HSP parameter [2] | δh hydrogen bonding HSP parameter [2] | δp polarity HSP parameter [2] | efficacy of microdroplets at dissolving cholesterol in whole blood [6] | also measured |
| --- | --- | --- | --- | --- | --- | --- |
| CC(=O)c1ccccc1 [Acetophenone] | 0.66 | 19.6 MPa^1/2 | 3.7 MPa^1/2 | 8.6 MPa^1/2 | – | solubility in water / water based blood ([3]; in words): somewhat soluble in water |
| O=C(O)c1ccccc1 [Benzoic acid] | – | – | – | – | – | time to excretion in the urine ([4]; after ingestion): ≤ 24 h |
| O=C(OCc1ccccc1)c1ccccc1 [Benzyl benzoate] | – | 20 MPa^1/2 | 5.2 MPa^1/2 | 5.1 MPa^1/2 | – | Ra^2 versus cholesterol [1]: 24; LD50 dose [5]: 1.68 g/kg |
| Cc1ccc(C(C)C)cc1O [Carvacrol] | 0.64 | 16.5 MPa^1/2 | 11.4 MPa^1/2 | 3.2 MPa^1/2 | excellent results | solubility in water / water based blood [3]: insoluble in water |
| CCOC(=O)OCC [Diethyl carbonate] | – | 16.6 MPa^1/2 | 6.1 MPa^1/2 | 3.1 MPa^1/2 | – | LD50 ([5]; oral): 8500 mg/kg |
| c1ccc(Oc2ccccc2)cc1 [Diphenyl ether] | 0.32 | 19.5 MPa^1/2 | 5.8 MPa^1/2 | 3.4 MPa^1/2 | excellent results | Ra^2 versus cholesterol [1]: 17; LD50 dose [5]: 2.85 g/kg of body weight; excreted in the urine ([4]; once absorbed): 90% |
| CC/C=C\C/C=C\C/C=C\C/C=C\C/C=C\CCCC(=O)O [Elcosapentaenoic acid] | – | – | – | – | – | result of solvent testing (dissolving cholesterol) [7]: very promising results |
| C=C(C)[C@H]1CC=C(C)CC1 [Limonene] | – | 17.2 MPa^1/2 | 4.3 MPa^1/2 | 1.8 MPa^1/2 | the cholesterol sample seemed to accumulate precipitate and swell | dissolving cholesterol in a dilute solution in water [8]: dissolved cholesterol |
| CCCCC/C=C\C/C=C\CCCCCCCC(=O)O [Linoleic acid] | – | – | – | – | – | result of solvent testing (dissolving cholesterol) [7]: very promising results |
